Patent publication US11510886B2, “Metformin amino acid compounds and methods of using the same” (Laboratorios Silancs S.A. DE C.V., priority 2016, dated 2022)
Read-outs that look alike come from different tables or passages of the source.

Legend:
[1] = rat, in vivo, po, 250 mg/kg
[2] = for Body weight (g) On administration day / Body weight (g) On distribution day / Body weight (g) On first administration day: Mean ± SD; for Body weight (g) On distribution day: before dosing
[3] = STZ-diabetic male rats, mean ± SD; for Absolute body weight, Day −3 (before STZ administration): baseline before STZ and before first TI/RI administration; for Absolute body weight, Day −1 / Absolute body weight, Day −2 (distribution of groups): before first TI/RI administration
blood glucose level = assay: Effect of metformin compounds on the glucokinetic profile after oral glucose overload; assay type: in vivo, Rat; details: for blood glucose level vs vehicle, after the oral glucose overload: 750 mg/kg for five days, glucose 3 g/kg, isolated time points 0.25-4 hours; for Blood glucose level, 0.25 h post-glucose overload / Blood glucose level, 0.5 h post-glucose overload / Blood glucose level, 2 h post-glucose overload / Blood glucose level, 6 h post-glucose overload / Blood glucose level, pre-glucose overload / Blood glucose level, 1 h post-glucose overload / Blood glucose level, 4 h post-glucose overload / Blood glucose level, 3 h post-glucose overload: rat, 750 mg/kg referred to metformin base, mean ± SD; for Blood glucose level, 0.25 h post-glucose overload / Blood glucose level, pre-glucose overload / Blood glucose level, 1 h post-glucose overload / Blood glucose level, 4 h post-glucose overload: *p<0.05 vs vehicle; for Blood glucose level, 3 h post-glucose overload: *p<0.05, **p<0.01 vs vehicle
[4] = terms of European Pharmacopeia 7.0 section 5.11
[5] = system: rat model of streptozotocin-induced diabetes; assay: Blood glucose levels in rat model of streptozotocin-induced diabetes, 14 days oral; details: for Blood glucose levels before TI/RI administration, Day −3 (before STZ administration): rats, baseline before STZ and before first TI/RI administration; for Blood glucose levels before TI/RI administration, Day −3 (before STZ administration) / Blood glucose levels before TI/RI administration, Day −1: mean ± SD; for Blood glucose levels before TI/RI administration, Day −1: STZ-diabetic rats, before first TI/RI administration, n.d. = all values beyond ULOD of glucometer (600 mg/dl), § n=1, ¢ n=2
[6] = Groups L-U, 750 mg/kg, first column of this head
[7] = Groups L-U, 750 mg/kg, second column of this head

Compound	AUC(0-24) [1] [µg·h/mL]	Cmax [1] [µg/mL]	Metformin base concentration in plasma, 0.5 h post-administration [1] [µg/mL]	Metformin base concentration in plasma, 1 h post-administration [1] [µg/mL]	Metformin base concentration in plasma, 2 h post-administration [1] [µg/mL]	Metformin base concentration in plasma, 4 h post-administration [1] [µg/mL]	Metformin base concentration in plasma, 8 h post-administration [1] [µg/mL]	Metformin base concentration in plasma, 24 h post-administration [1] [µg/mL]	Body weight (g) On administration day ([2]; Groups B-K, 250 mg/kg) [g]	Body weight (g) On distribution day ([2]; Groups B-K, 250 mg/kg) [g]	Body weight (g) On distribution day ([2]; Groups L-U, 750 mg/kg) [g]	Body weight (g) On first administration day [2, 6] [g]	Body weight (g) On first administration day [2, 7] [g]	Absolute body weight, Day −3 (before STZ administration) [3] [g]	Absolute body weight, Day −1 [3] [g]	Blood glucose level, 0.25 h post-glucose overload (blood glucose level) [mg/dL]	Blood glucose level, 0.5 h post-glucose overload (blood glucose level) [mg/dL]	Blood glucose level, 2 h post-glucose overload (blood glucose level) [mg/dL]	Blood glucose level, 6 h post-glucose overload (blood glucose level) [mg/dL]	Blood glucose levels before TI/RI administration, Day −3 (before STZ administration) [5] [mg/dL]	also measured
CN(C)C(=N)NC(=N)N.C[C@H](N)C(=O)O [Metformin alaninate, metformin alaninate]	126.09	16.40	14.77 ± 3.29	13.00 ± 1.39	14.97 ± 3.57	16.40 ± 5.23	3.56 ± 1.19	0.22 ± 0.08	202.49 ± 12.79	187.52 ± 10.28	186.18 ± 8.04	200.80 ± 10.15	195.43 ± 11.23	232.07 ± 6.17	208.00 ± 2.65	90.50 ± 13.72	94.75 ± 13.52	87.75 ± 9.00	84.00 ± 7.83	121.33 ± 6.51	macroscopic necropsy findings ([2]; 750 mg/kg for five days): small additional lobe; blood glucose level vs vehicle, after the oral glucose overload (blood glucose level; Dunn's test): statistically significant decreases; Blood glucose level, pre-glucose overload (blood glucose level): 82.25 ± 7.68 mg/dL; Physical form (hygroscopicity) ([4]; listed as 13. ALANINE): Hygroscopic solid; Physical form (hygroscopicity) ([4]; listed as alanine): hygroscopic; blood glucose levels 2 hours after administration on day 2 vs diabetic animals treated with vehicle ([5]; diabetic rats, 250 mg/kg as metformin base): significantly lower blood glucose levels
CC[C@H](C)[C@H](N)C(=O)O.CN(C)C(=N)NC(=N)N [Metformin isoleucinate, metformin isoleucinate]	148.77	21.43	12.53 ± 1.91	14.47 ± 2.58	10.05 ± 2.33	21.43 ± 3.35	4.94 ± 0.80	0.24 ± 0.08	197.30 ± 10.62	189.10 ± 7.62	190.40 ± 7.71	203.33 ± 5.11	196.80 ± 11.54	224.63 ± 9.17	211.30 ± 7.51	–	87.75 ± 12.97	76.75 ± 11.44	70.75 ± 17.04	115.33 ± 4.93	Absolute body weight, Day −2 (distribution of groups) [3]: 225.17 ± 10.85 g; blood glucose level vs vehicle, before the oral glucose overload (blood glucose level; 750 mg/kg (referred to metformin base) once a day for five days, Dunn's test): statistically significant decrease; blood glucose level vs vehicle, after the oral glucose overload (blood glucose level; Dunn's test): statistically significant decreases; blood glucose level vs vehicle, after the oral glucose overload (blood glucose level; Dunn's test, listed as metformin isoleucinate): statistically significant decrease; Blood glucose level, 1 h post-glucose overload (blood glucose level): 89.75 ± 19.77 mg/dL; Blood glucose level, 4 h post-glucose overload (blood glucose level): 80.50 ± 7.51 mg/dL; Physical form (hygroscopicity) ([4]; listed as 12. ISOLEUCIN): Hygroscopic solid; Physical form (hygroscopicity) ([4]; listed as isoleucine): hygroscopic
dimetformin aspartate	122.96	15.50	12.43 ± 2.05	15.50 ± 4.49	13.47 ± 3.13	6.05 ± 0.98	6.50 ± 1.57	0.22 ± 0.11	188.42 ± 5.42	186.02 ± 5.04	192.05 ± 6.89	207.73 ± 9.57	197.30 ± 10.15	228.17 ± 10.17	205.23 ± 6.83	96.00 ± 17.15	98.50 ± 13.70	95.25 ± 8.77	89.75 ± 5.50	120.00 ± 2.65	Absolute body weight, Day −2 (distribution of groups) [3]: 219.53 ± 13.36 g; Blood glucose level, 1 h post-glucose overload (blood glucose level): 103.75 ± 9.29 mg/dL; Blood glucose level, 3 h post-glucose overload (blood glucose level): 92.00 ± 6.16 mg/dL; Blood glucose level, 4 h post-glucose overload (blood glucose level): 92.75 ± 4.11 mg/dL; Blood glucose level, pre-glucose overload (blood glucose level): 83.25 ± 14.89 mg/dL; Blood glucose levels before TI/RI administration, Day −1 [5]: 572.00^§ ± n.d.^§ mg/dL
diphenformin aspartate	–	–	–	–	–	–	–	–	–	–	–	–	–	–	–	–	–	–	–	115.33 ± 10.02	–
metformin leucinate	133.32	15.43	10.21 ± 1.77	15.43 ± 0.81	12.30 ± 2.41	12.57 ± 4.13	5.88 ± 0.80	0.21 ± 0.08	195.70 ± 9.85	187.38 ± 6.74	185.53 ± 12.04	199.25 ± 9.43	193.53 ± 11.92	234.57 ± 1.87	207.93 ± 0.99	87.75 ± 31.40	90.75 ± 28.16	99.00 ± 2.45	85.25 ± 2.22	118.33 ± 10.02	Absolute body weight, Day −2 (distribution of groups) [3]: 221.90 ± 6.16 g; Blood glucose level, 1 h post-glucose overload (blood glucose level): 99.50 ± 27.50 mg/dL; Blood glucose level, 3 h post-glucose overload (blood glucose level): 91.75 ± 6.99 mg/dL; Blood glucose level, 4 h post-glucose overload (blood glucose level): 89.75 ± 3.69 mg/dL; Blood glucose level, pre-glucose overload (blood glucose level): 72.25 ± 9.29 mg/dL; Physical form (hygroscopicity) [4]: Deliquescent; Blood glucose levels before TI/RI administration, Day −1 [5]: 563.00 ± 36.39 mg/dL
metformin threoninate	107.62	14.30	8.81 ± 2.00	14.30 ± 1.70	11.53 ± 2.61	11.43 ± 1.66	3.91 ± 0.33	0.23 ± 0.08	193.13 ± 9.66	186.22 ± 10.13	188.55 ± 6.35	202.15 ± 5.48	194.20 ± 4.58	231.13 ± 10.20	207.33 ± 8.52	110.33 ± 16.92	102.67 ± 8.02	93.67 ± 10.69	89.33 ± 3.06	117.33 ± 14.05	mortality and clinical signs ([2]; glucokinetic groups, 750 mg/kg for five days): died during the study just after the fifth test item administration; Absolute body weight, Day −2 (distribution of groups) [3]: 216.43 ± 8.74 g; Blood glucose level, 1 h post-glucose overload (blood glucose level): 101.67 ± 11.85 mg/dL; Blood glucose level, 3 h post-glucose overload (blood glucose level): 91.67 ± 6.03 mg/dL; Blood glucose level, 4 h post-glucose overload (blood glucose level): 87.67 ± 2.08 mg/dL; Blood glucose level, pre-glucose overload (blood glucose level): 90.33 ± 12.34 mg/dL
